Reference: the supplement of paper PMC9013687
± gives the standard deviation of the averaged measurements.

How the values were obtained:
Danio rerio embryo [1] = system: Danio rerio embryo
Experimental: (§1)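 Zebrafish embryos (UFZ-OBI strain) were exposed from 2 hpf for 48 h (2 dpf) or 96 h (4 dpf) at 28 °C; spontaneous tail coiling was scored at 25 hpf. Morphological features from automated image analysis (FishInspector), heart rate and locomotor response were fitted with drc models. Quantal endpoints were dichotomised at 2.5 SD from controls and fitted with a log-logistic model; heart rate, pigmentation and STC were normalised to the replicate control mean. Betamethasone was tested as betamethasone dipropionate, diflorasone as diflorasone diacetate.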

Danio rerio embryo [2] = conditions: exposure time: 4 dpf
Experimental: as §1

Danio rerio embryo [3] = experiment: EC50 Curvature_Increase
Experimental: as §1

Danio rerio embryo [4] = experiment: EC50 Body length_Decrease
Experimental: as §1

Danio rerio embryo [5] = experiment: EC50 Bladder size_Decrease; conditions: exposure time: 4 dpf
Experimental: as §1

Danio rerio embryo [6] = experiment: EC50 Pericard size_Increase
Experimental: as §1

Danio rerio embryo [7] = experiment: EC50 Yolk sac size_Increase; conditions: exposure time: 4 dpf
Experimental: as §1

Danio rerio embryo [8] = experiment: EC50 Eye-jaw distance_Decrease; conditions: exposure time: 4 dpf
Experimental: as §1

Danio rerio embryo [9] = experiment: EC50 Otolith-eye distance_Decrease; conditions: exposure time: 4 dpf
Experimental: as §1

Danio rerio embryo [10] = experiment: EC10 LMR dark; higher = less potent; conditions: exposure time: 4 dpf
Experimental: as §1

Danio rerio embryo [11] = experiment: EC20 LMR dark; higher = less potent; conditions: exposure time: 4 dpf
Experimental: as §1

Danio rerio embryo [12] = experiment: EC20 Any effect; higher = less potent
Experimental: as §1

Danio rerio embryo [13] = experiment: EC10 Any effect; higher = less potent
Experimental: as §1

Danio rerio embryo [14] = experiment: EC10 Curvature_Increase; higher = less potent
Experimental: as §1

Danio rerio embryo [15] = experiment: EC20 Curvature_Increase; higher = less potent
Experimental: as §1

Danio rerio embryo [16] = experiment: EC20 Body length_Decrease; higher = less potent
Experimental: as §1

Danio rerio embryo [17] = experiment: EC10 Body length_Decrease; higher = less potent
Experimental: as §1

Danio rerio embryo [18] = experiment: EC10 Bladder size_Decrease; higher = less potent; conditions: exposure time: 4 dpf
Experimental: as §1

Danio rerio embryo [19] = experiment: EC20 Bladder size_Decrease; higher = less potent; conditions: exposure time: 4 dpf
Experimental: as §1

Danio rerio embryo [20] = experiment: EC20 Yolk sac size_Increase; higher = less potent; conditions: exposure time: 4 dpf
Experimental: as §1

Danio rerio embryo [21] = experiment: EC20 Pericard size_Increase; higher = less potent
Experimental: as §1

Danio rerio embryo [22] = experiment: EC10 Yolk sac size_Increase; higher = less potent; conditions: exposure time: 4 dpf
Experimental: as §1

Danio rerio embryo [23] = experiment: EC10 Pericard size_Increase; higher = less potent
Experimental: as §1

Danio rerio embryo [24] = experiment: EC20 Eye-jaw distance_Decrease; higher = less potent; conditions: exposure time: 4 dpf
Experimental: as §1

Danio rerio embryo [25] = experiment: EC10 Eye-jaw distance_Decrease; higher = less potent; conditions: exposure time: 4 dpf
Experimental: as §1

Danio rerio embryo [26] = experiment: EC20 Head trunk angle_Decrease; higher = less potent; conditions: exposure time: 2 dpf
Experimental: as §1

Danio rerio embryo [27] = experiment: EC20 Otolith-eye distance_Decrease; higher = less potent; conditions: exposure time: 4 dpf
Experimental: as §1

Danio rerio embryo [28] = experiment: EC10 Otolith-eye distance_Decrease; higher = less potent; conditions: exposure time: 4 dpf
Experimental: as §1

Danio rerio embryo [29] = experiment: spontaneous tail coiling frequency (coils/min/embryo); higher = more spontaneous movement; conditions: 25 hpf
Experimental: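 Spontaneous tail coilings of zebrafish embryos exposed from 2 hpf were recorded at 24-25 hpf in 1-min videos and detected by a KNIME workflow from grey-value variance. Betamethasone was tested as the dipropionate, diflorasone as the diacetate.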

CC(C)(C)C(O)C(Oc1ccc(Cl)cc1)n1cncn1 (centres undefined) [Triadimenol]
Conditions	EC10 Any effect [µM]	EC10 Body length Decrease [µM]	EC10 Curvature Increase [µM]	EC10 Pericard size Increase [µM]	EC20 Any effect [µM]	EC20 Body length Decrease [µM]	EC20 Curvature Increase [µM]	EC20 Pericard size Increase [µM]	EC50 Any effect [µM]	EC50 Body length Decrease [µM]	EC50 Curvature Increase [µM]	EC50 Pericard size Increase [µM]	EC50 STC decrease [µM]	spontaneous tail coiling frequency
Danio rerio embryo [1], exposure time: 2 dpf	–	–	–	–	–	–	–	–	133	–	–	–	–	–
Danio rerio embryo [1], exposure time: 4 dpf	–	–	–	–	–	–	–	–	45.5	–	–	–	–	–
Danio rerio embryo [1], exposure time: 25 h	–	–	–	–	–	–	–	–	–	–	–	–	169	–
Danio rerio embryo [3], exposure time: 2 dpf	–	–	–	–	–	–	–	–	–	–	136	–	–	–
Danio rerio embryo [3], exposure time: 4 dpf	–	–	–	–	–	–	–	–	–	–	117	–	–	–
Danio rerio embryo [4], exposure time: 2 dpf	–	–	–	–	–	–	–	–	–	169	–	–	–	–
Danio rerio embryo [4], exposure time: 4 dpf	–	–	–	–	–	–	–	–	–	106	–	–	–	–
Danio rerio embryo [6], exposure time: 2 dpf	–	–	–	–	–	–	–	–	–	–	–	225	–	–
Danio rerio embryo [6], exposure time: 4 dpf	–	–	–	–	–	–	–	–	–	–	–	84.3	–	–
Danio rerio embryo [12], exposure time: 2 dpf	–	–	–	–	127	–	–	–	–	–	–	–	–	–
Danio rerio embryo [12], exposure time: 4 dpf	–	–	–	–	31.7	–	–	–	–	–	–	–	–	–
Danio rerio embryo [13], exposure time: 2 dpf	123	–	–	–	–	–	–	–	–	–	–	–	–	–
Danio rerio embryo [13], exposure time: 4 dpf	25.7	–	–	–	–	–	–	–	–	–	–	–	–	–
Danio rerio embryo [14], exposure time: 2 dpf	–	–	116	–	–	–	–	–	–	–	–	–	–	–
Danio rerio embryo [14], exposure time: 4 dpf	–	–	67.2	–	–	–	–	–	–	–	–	–	–	–
Danio rerio embryo [15], exposure time: 2 dpf	–	–	–	–	–	–	123	–	–	–	–	–	–	–
Danio rerio embryo [15], exposure time: 4 dpf	–	–	–	–	–	–	82.4	–	–	–	–	–	–	–
Danio rerio embryo [16], exposure time: 2 dpf	–	–	–	–	–	98.6	–	–	–	–	–	–	–	–
Danio rerio embryo [16], exposure time: 4 dpf	–	–	–	–	–	82.5	–	–	–	–	–	–	–	–
Danio rerio embryo [17], exposure time: 2 dpf	–	71.8	–	–	–	–	–	–	–	–	–	–	–	–
Danio rerio embryo [17], exposure time: 4 dpf	–	71.3	–	–	–	–	–	–	–	–	–	–	–	–
Danio rerio embryo [21], exposure time: 2 dpf	–	–	–	–	–	–	–	146	–	–	–	–	–	–
Danio rerio embryo [21], exposure time: 4 dpf	–	–	–	–	–	–	–	71	–	–	–	–	–	–
Danio rerio embryo [23], exposure time: 2 dpf	–	–	–	113	–	–	–	–	–	–	–	–	–	–
Danio rerio embryo [23], exposure time: 4 dpf	–	–	–	64.1	–	–	–	–	–	–	–	–	–	–
Danio rerio embryo [29], 10.6 µM	–	–	–	–	–	–	–	–	–	–	–	–	–	2.49
Danio rerio embryo [29], 21.1 µM	–	–	–	–	–	–	–	–	–	–	–	–	–	2.29
Danio rerio embryo [29], 42.3 µM	–	–	–	–	–	–	–	–	–	–	–	–	–	3.32 ± 0.78
Danio rerio embryo [29], 84.5 µM	–	–	–	–	–	–	–	–	–	–	–	–	–	2.24 ± 0.39
Danio rerio embryo [29], 118.3 µM	–	–	–	–	–	–	–	–	–	–	–	–	–	1.91
Danio rerio embryo [29], 169.1 µM	–	–	–	–	–	–	–	–	–	–	–	–	–	1.28 ± 0.37
Danio rerio embryo [29], 253.6 µM	–	–	–	–	–	–	–	–	–	–	–	–	–	0.06
Danio rerio embryo [29], 338.1 µM	–	–	–	–	–	–	–	–	–	–	–	–	–	0

Conditions	EC10 Bladder size Decrease [µM]	EC10 Eye-jaw distance Decrease [µM]	EC10 LMR dark [µM]	EC10 Otolith-eye distance Decrease [µM]	EC10 Yolk sac size Increase [µM]	EC20 Bladder size Decrease [µM]	EC20 Eye-jaw distance Decrease [µM]	EC20 Head trunk angle Decrease [µM]	EC20 LMR dark [µM]	EC20 Otolith-eye distance Decrease [µM]	EC20 Yolk sac size Increase [µM]	EC50 Bladder size Decrease [µM]	EC50 Eye-jaw distance Decrease [µM]	EC50 LMR dark [µM]	EC50 Otolith-eye distance Decrease [µM]	EC50 Yolk sac size Increase [µM]
Danio rerio embryo [2]	–	–	–	–	–	–	–	–	–	–	–	–	–	25.2	–	–
Danio rerio embryo [5]	–	–	–	–	–	–	–	–	–	–	–	20.7	–	–	–	–
Danio rerio embryo [7]	–	–	–	–	–	–	–	–	–	–	–	–	–	–	–	114
Danio rerio embryo [8]	–	–	–	–	–	–	–	–	–	–	–	–	51.4	–	–	–
Danio rerio embryo [9]	–	–	–	–	–	–	–	–	–	–	–	–	–	–	97.6	–
Danio rerio embryo [10]	–	–	6.51	–	–	–	–	–	–	–	–	–	–	–	–	–
Danio rerio embryo [11]	–	–	–	–	–	–	–	–	10.7	–	–	–	–	–	–	–
Danio rerio embryo [18]	19.9	–	–	–	–	–	–	–	–	–	–	–	–	–	–	–
Danio rerio embryo [19]	–	–	–	–	–	20.2	–	–	–	–	–	–	–	–	–	–
Danio rerio embryo [20]	–	–	–	–	–	–	–	–	–	–	88.7	–	–	–	–	–
Danio rerio embryo [22]	–	–	–	–	76.8	–	–	–	–	–	–	–	–	–	–	–
Danio rerio embryo [24]	–	–	–	–	–	–	41.2	–	–	–	–	–	–	–	–	–
Danio rerio embryo [25]	–	36.1	–	–	–	–	–	–	–	–	–	–	–	–	–	–
Danio rerio embryo [26]	–	–	–	–	–	–	–	113	–	–	–	–	–	–	–	–
Danio rerio embryo [27]	–	–	–	–	–	–	–	–	–	74.3	–	–	–	–	–	–
Danio rerio embryo [28]	–	–	–	63.4	–	–	–	–	–	–	–	–	–	–	–	–
